From patent US4368267A, “Epoxidation of lower α-olefins” (priority 1980, dated 1983)

Assays:
Format in all cases: cell-based
[1] = tested on: Methylocystis parvus OBBP (NRRL B-11,198); test: Methane hydroxylation and alkene epoxidation by washed cell suspensions; conditions: for Ability to hydroxylate methane or epoxidize C2 -C4 alkenes: methanol-grown washed cells
Description: (§1) The pH of the nutrient medium was adjusted to 7.0 by the addition of acid or base and 50 ml aliquots of the nutrient medium was charged into a plurality of 300 ml shake flasks. […] The isolates had been maintained on agar plates under an atmosphere of methane and air having a 1:1 v/v gas ratio which had been transferred every two weeks. […] The inoculated flasks were sealed air tight and were incubated on a rotary shaker of orbital radius 2.5 cm at 250 rpm and at 30° C. for two days until the turbidity in the medium had developed.
(§2) The cells were harvested by centrifugation at 10,000 ×g at 4° C. for 30 minutes. The cell pellet was washed twice with a 0.15 M phosphate buffer at a pH of 7.0 (containing 0.002 M MgCl2). The washed cells were then suspended in a 0.15 M phosphate buffer at pH 7.0.
(§3) A 0.5 ml aliquot of each washed cell suspension (2 mg cells) was put into 10 ml vials at 4° C. which were sealed with a rubber cap. The gaseous phase of the vials was removed with vacuum and then was replaced with a gas mixture of alkene and oxygen at a 1:1 v/v ratio. It was then incubated at 30° C. on a rotary shaker at 300 rpm. Samples of product (3 μl) were withdrawn periodically with a microsyringe and the products were analyzed by gas chromatography (ionization flame detector column).

[2] = tested on: Methylomonas methanica S1 (NRRL B-11,199); test: as above; conditions: for Ability to hydroxylate methane or epoxidize C2 -C4 alkenes: methanol-grown washed cells
Description: as §1, §2, §3

[3] = tested on: Methylobacter capsulatus Y (NRRL B-11,201); test: Methane hydroxylation and propylene epoxidation by washed cell suspensions
Description: (§4) The pH of the nutrient medium was adjusted to 7.0 by the addition of acid or base and 50 ml aliquots of the nutrient medium was charged into a plurality of 300 ml shake flasks. The shake flasks were inoculated with an inoculating loop of cells from an agar plate containing homogeneous colonies of the microorganisms on the plate (the purity of the isolates were confirmed by microscopic examination). The isolates had been maintained on agar plates under an atmosphere of methane and air having a 1:1 v/v gas ratio which had been transferred every two weeks. The gaseous phase of the inoculated flasks was then replaced with a gas mixture comprised of methane and air having a ratio of 1:1 on a v/v basis. The inoculated flasks were sealed air tight and were incubated on a rotary shaker of orbital radius 2.5 cm at 250 rpm and at 30° C. for two days until the turbidity in the medium had developed.
as §2
as §3, with “The gaseous phase of the vials was removed with vacuum and then was replaced with a gas mixture of alkene and oxygen at a 1:1 v/v ratio.” left out
Several experiments were carried out using a plurality of compounds capable of generating the necessary reducing power (NADH2 or NADPH2) required for the epoxidation of alkenes or dienes. […]

[4] = tested on: Methylococcus capsulatus (CRL M1, NRRL B-11,219); test: Oxidation/epoxidation by washed cell suspensions; conditions: propylene alone (control); 3 Hr
Description: The pH of the nutrient medium was adjusted to 7.0 by the addition of acid or base and 50 ml aliquots of the nutrient medium was charged into a plurality of 300 ml shake flasks. […] The isolates had been maintained on agar plates under an atmosphere of methane and air having a 1:1 v/v gas ratio which had been transferred every two weeks. The gaseous phase of the inoculated flasks was then replaced with a gas mixture comprised of methane and air having a ratio of 1:1 on a v/v basis. The inoculated flasks were sealed air tight and were incubated on a rotary shaker of orbital radius 2.5 cm at 250 rpm and at 30° C. for two days until the turbidity in the medium had developed.
as §2, §3
The experimental procedure described in Example 1 was used to prepare washed cell suspensions of methane-grown microorganisms and the use of the same to oxidize or epoxidize the branched chain alkanes, alkenes and dienes.

[5] = tested on: Methylobacterium organophilum (CRL 26, NRRL B-11,222); test: Epoxidation/hydroxylation by washed cell suspensions; conditions: propylene alone
Description: as §4, §2, §3
(§5) Several experiments were carried out using a plurality of compounds capable of generating the necessary reducing power (NADH2 or NADPH2) required for the epoxidation of alkenes or dienes. These experiments were carried out using cell suspensions of methane grown methylotrophs using the procedure as described in Example 1 except that a stimulator compound was added to the reaction medium.

[6] = tested on: Methylococcus capsulatus strain MC; test: Stimulation of propylene epoxidation in cell suspensions; conditions: propylene alone
Description: as §4, §2, §3, §5

[7] = tested on: Methylosinus trichosporium OB3b (NRRL B-11,196); test: Stoichiometry of the epoxidation of propylene by a cell-suspension; conditions: 3.6 μmoles propylene; 3.1 mg protein; 3 min.
Description: As a comparison the stoichiometry of the epoxidation of propylene by a cell-suspension of Methylosinus trichosporium OB3b (NRRL B-11,196) was determined as follows. The reaction mixture (3.0 ml.) contained 0.05 M sodium phosphate buffer, pH 7.0 and 3.6 μmoles of propylene. The reaction was initiated by the injection of 0.1 ml. of cell-suspension (3.1 mg protein). A correction was made for the endogenous consumption of oxygen. The amount of oxygen consumed during the reaction (3 min.) was determined polarographically with a Clark oxygen electrode. The propylene consumed and the propylene oxide formed was estimated by gas chromatography. The propylene consumed was 0.29 μmoles, the oxygen consumed was 0.30 μmoles and the propylene oxide formed was 0.28 μmoles.

[8] = methane-grown washed cells, 30° C.

SMILES | Conversion rate, methane hydroxylation [1, 8] [μmole/hr/mg protein] | Ability to hydroxylate methane or epoxidize C2 -C4 alkenes [1] | Conversion rate, methane hydroxylation [2, 8] [μmole/hr/mg protein] | Ability to hydroxylate methane or epoxidize C2 -C4 alkenes [2] | Conversion rate, propylene to propylene oxide [1, 8] [μmole/hr/mg protein] | Conversion rate, propylene to propylene oxide [2, 8] [μmole/hr/mg protein] | Conversion rate, propylene to propylene oxide [3, 8] [μmole/hr/mg protein] | Rate of Product Formation (Propylene Oxide) ([3]; propylene alone) [nmoles/hr/mg protein] | Epoxidation Rate, Propylene oxide [4] [μmoles/0.5 ml] | Rate of Product Formation (Propylene Oxide) [5] [nmoles/hr/mg protein] | Rate of Product Formation (Propylene Oxide) [6] [nmoles/hr/mg protein] | Propylene Oxide Formed [7] [µmol] | oxygen consumed [7] [µmol] | propylene consumed [7] [µmol]
C [Methane] | 0.7 | did not possess the ability | 1.3 | did not possess the ability | – | – | – | – | – | – | – | – | – | –
C=CC [Propylene] | – | did not possess the ability | – | did not possess the ability | 1.6 | 2.7 | 1.5 | 2 | 3.9 | 10 | 3.5 | 0.28 | 0.30 | 0.29
